According to patent US12543738B2 (Bayer Aktiengesellschaft, priority 2020, dated 2026):

Legend:
[1] = Measurement of LogP values by HPLC on reversed phase columns (EEC directive 79/831 Annex V.A8); assay type: physicochemical; conditions: method [a]: LC-UV, acidic range, 0.1% formic acid in water and acetonitrile; compounds of formula (I-1), Table 1
Procedure: Calibration was done with straight-chain alkan2-ones (with 3 to 16 carbon atoms) with known LogP values (measurement of LogP values using retention times with linear interpolation between successive alkanones). Lambda-max-values were determined using UV-spectra from 200 nm to 400 nm and the peak values of the chromatographic signals

Botrytis cinerea = experiment: In vivo preventive test on Botrytis cinerea (grey mould); conditions: 500 ppm of active ingredient, preventive spray on gherkin or cabbage, evaluated 4 to 5 days after inoculation, read-out: efficacy
Procedure: (§1) The active ingredients were made soluble and homogenized in a mixture of Dimethyl sulfoxide/Acetone//Tween® 80 and then diluted in water to the desired concentration. The young plants of gherkin or cabbage were treated by spraying the active ingredient prepared as described above. Control plants were treated only with an aqueous solution of Acetone/Dimethyl sulfoxide/Tween® 80. After 24 hours, the plants were contaminated by spraying the leaves with an aqueous suspension of Botrytis cinerea spores.

Pyrenophora teres = experiment: In vivo preventive test on Pyrenophora teres (net blotch on barley); conditions: 240 h, 500 ppm of active ingredient, preventive spray on barley, evaluated 10 days after inoculation, read-out: efficacy
Procedure: as §1, with “barley” for “gherkin or cabbage”, “Pyrenophora teres” for “Botrytis cinerea”

Sphaerotheca fuliginea = experiment: In vivo preventive test on Sphaerotheca fuliginea (powdery mildew on cucurbits); conditions: Podosphaera fuliginea, 192 h; 500 ppm of active ingredient; preventive spray on gherkin; evaluated 8 days after inoculation; read-out: efficacy
Procedure: as §1, with “gherkin” for “gherkin or cabbage”, “Sphaerotheca fuliginea” for “Botrytis cinerea”

[2] = tested on: Colletotrichum lindemuthianum; experiment: In vivo preventive test on Colletotrichum lindemuthianum (leaf spot on bean); conditions: 168 h, 500 ppm of active ingredient, preventive spray on bean, evaluated 7 days after inoculation, read-out: efficacy
Procedure: as §1, with “bean” for “gherkin or cabbage”, “Colletotrichum lindemuthianum” for “Botrytis cinerea”

Alternaria alternata = Alternaria alternata in vitro cell test; assay type: cell-based; conditions: 120 h, 20 ppm of active ingredient, liquid culture, 5 days incubation, read-out: efficacy (inhibition of fungal growth)
Procedure: (§2) • Solvent: DMSO • Culture medium: 14.6 g anhydrous D-glucose (VWR), 7.1 g Mycological Peptone (Oxoid), 1.4 g granulated Yeast Extract (Merck), QSP 1 liter • Inoculum: spores suspension Fungicides were solubilized in DMSO and the solution used to prepare the required range of concentrations. […] A spore suspension of A. alternata was prepared and diluted to the desired spore density. Fungicides were evaluated for their ability to inhibit spore germination and mycelium growth in liquid culture assay. The compounds were added in the desired concentration to the culture medium with spores. After 5 days incubation, fungi-toxicity of compounds was determined by spectrometric measurement of mycelium growth. Inhibition of fungal growth was determined by comparing the absorbance values in wells containing the fungicides with the absorbance in control wells without fungicides.

Fusarium culmorum = Fusarium culmorum in vitro cell test; assay type: cell-based; conditions: 96 h, 20 ppm of active ingredient, liquid culture, 4 days incubation, read-out: efficacy (inhibition of fungal growth)
Procedure: • Solvent: DMSO • Culture medium: 14.6 g anhydrous D-glucose (VWR), 7.1 g Mycological Peptone (Oxoid), 1.4 g granulated Yeast Extract (Merck), QSP 1 liter • Inoculum: spore suspension • Fungicides were solubilized in DMSO and the solution used to prepare the required range of concentrations. The final concentration of DMSO used in the assay was ≤1%.
A spore suspension of F. culmorum was prepared and diluted to the desired spore density.
Fungicides were evaluated for their ability to inhibit spore germination and mycelium growth in liquid culture assay. The compounds were added in the desired concentration to the culture medium with spores. After 4 days incubation, fungi-toxicity of compounds was determined by spectrometric measurement of mycelium growth. Inhibition of fungal growth was determined by comparing the absorbance values in wells containing the fungicides with the absorbance in control wells without fungicides.

Pyricularia Oryzae = experiment: microbe, parasite or virus in culture; assay type: cell-based; conditions: 120 h, read-out: efficacy (inhibition of fungal growth)
[3] = tested on: Colletotrichum lindemuthianum; experiment: Colletotrichum lindemuthianum in vitro cell test; assay type: cell-based; conditions: 144 h, 20 ppm of active ingredient, liquid culture, 6 days incubation, read-out: efficacy (inhibition of fungal growth)
Procedure: as §2, with “of C. lindemuthianum” for “of A. alternata”, “inhibit spores” for “inhibit spore”, “After 6” for “After 5”

Septoria tritici = Septoria tritici in vitro cell test; assay type: cell-based; conditions: Zymoseptoria tritici, 168 h; 20 ppm of active ingredient; liquid culture, 7 days incubation; read-out: efficacy (inhibition of fungal growth)
Procedure: • Solvent: DMSO • Culture medium: 1 g KH2PO4 (VWR), 1 g K2HPO4 (VWR), 0.5 g Urea (VWR), 3 g KNO3 (Prolabo), 10 g saccharose (VWR), 0.5 g MgSO4, 7H2O (Sigma), 0.07 g CaCl2, 2H2O (Prolabo), 0.2 mg MnSO4, H2O (Sigma), 0.6 mg CuSO4, 5H2O (Sigma), 7.9 mg ZnSO4, 7H2O (Sigma), 0.1 mg H3BO3 (Merck), 0.14 mg NaMoO4, 2H2O (Sigma), 2 mg thiamine (Sigma), 0.1 mg biotine (VWR), 4 mg FeSO4, 7H2O (Sigma), QSP 1 liter • Inoculum: spore suspension Fungicides were solubilized in DMSO and the solution used to prepare the required range of concentrations. […] A spore suspension of S. tritici was prepared and diluted to the desired spore density. Fungicides were evaluated for their ability to inhibit spore germination and mycelium growth in liquid culture assay. The compounds were added in the desired concentration to the culture medium with spores. […] Inhibition of fungal growth was determined by comparing the absorbance values in wells containing the fungicides with the absorbance in control wells without fungicides.

Alternaria brassicae = experiment: In vivo preventive test on Alternaria brassicae (leaf spot on radish or cabbage); conditions: 144 h, 500 ppm of active ingredient, preventive spray on radish or cabbage, evaluated 6 days after inoculation, read-out: efficacy
Procedure: as §1, with “radish” for “gherkin”, “Alternaria brassicae” for “Botrytis cinerea”

Cc1ccc(CC2CON=C(c3cc(C)nnc3Oc3cccc(Cl)c3)N2)c(Br)c1 (racemic) [Compound I-001, (5RS)-5-(2-bromo-4-methylbenzyl)-3-[3-(3-chlorophenoxy)-6-methylpyridazin-4-yl]-5,6-dihydro-4H-1,2,4-oxadiazine]
chromatographic logP [1]: 3.94 | pest or weed control at 500 ppm (Botrytis cinerea): 90 to 100% | pest or weed control at 500 ppm (Pyrenophora teres): 90 to 100% | pest or weed control at 500 ppm (Sphaerotheca fuliginea): 90 to 100% | pest or weed control at 500 ppm [2]: 90 to 100% | inhibition at 20 ppm (Alternaria alternata): 90 to 100% | inhibition at 20 ppm (Fusarium culmorum): 90 to 100% | inhibition at 20 ppm (Pyricularia Oryzae): 90 to 100% | inhibition at 20 ppm [3]: 90 to 100% | inhibition at 20 ppm (Septoria tritici): 90 to 100% | pest or weed control at 500 ppm (Alternaria brassicae): 90 to 100%

Cc1ccc(CC2CON=C(c3cc(C)nnc3Oc3cccc(Cl)c3)N2)c(C)c1 (racemic) [Compound I-002, (5RS)-3-[3-(3-chlorophenoxy)-6-methylpyridazin-4-yl]-5-(2,4-dimethylbenzyl)-5,6-dihydro-4H-1,2,4-oxadiazine]
chromatographic logP [1]: 3.77 | pest or weed control at 500 ppm (Botrytis cinerea): 90 to 100% | pest or weed control at 500 ppm (Pyrenophora teres): 90 to 100% | pest or weed control at 500 ppm (Sphaerotheca fuliginea): 90 to 100% | pest or weed control at 500 ppm [2]: 90 to 100% | inhibition at 20 ppm (Alternaria alternata): 90 to 100% | inhibition at 20 ppm (Fusarium culmorum): 90 to 100% | inhibition at 20 ppm (Pyricularia Oryzae): 90 to 100% | inhibition at 20 ppm [3]: 90 to 100% | inhibition at 20 ppm (Septoria tritici): 90 to 100% | pest or weed control at 500 ppm (Alternaria brassicae): 90 to 100%

Cc1ccc(CC2CON=C(c3cc(C)nnc3Oc3cccc(C)c3F)N2)c(Cl)c1 (racemic) [Compound I-003, (5RS)-5-(2-chloro-4-methylbenzyl)-3-[3-(2-fluoro-3-methylphenoxy)-6-methylpyridazin-4-yl]-5,6-dihydro-4H-1,2,4-oxadiazine]
chromatographic logP [1]: 3.78 | pest or weed control at 500 ppm (Botrytis cinerea): 90 to 100% | pest or weed control at 500 ppm (Pyrenophora teres): 90 to 100% | pest or weed control at 500 ppm (Sphaerotheca fuliginea): 90 to 100% | pest or weed control at 500 ppm [2]: 90 to 100% | inhibition at 20 ppm (Alternaria alternata): 90 to 100% | inhibition at 20 ppm (Fusarium culmorum): 90 to 100% | inhibition at 20 ppm (Pyricularia Oryzae): 90 to 100% | inhibition at 20 ppm [3]: 90 to 100% | inhibition at 20 ppm (Septoria tritici): 90 to 100% | pest or weed control at 500 ppm (Alternaria brassicae): 90 to 100%

Cc1ccc(CC2CON=C(c3cc(C)nnc3Oc3cccc(Cl)c3)N2)c(Cl)c1 (racemic) [Compound I-004, (5RS)-5-(2-chloro-4-methylbenzyl)-3-[3-(3-chlorophenoxy)-6-methylpyridazin-4-yl]-5,6-dihydro-4H-1,2,4-oxadiazine]
chromatographic logP [1]: 3.81 | pest or weed control at 500 ppm (Botrytis cinerea): 90 to 100% | pest or weed control at 500 ppm (Pyrenophora teres): 90 to 100% | pest or weed control at 500 ppm (Sphaerotheca fuliginea): 90 to 100% | pest or weed control at 500 ppm [2]: 90 to 100% | inhibition at 20 ppm (Alternaria alternata): 90 to 100% | inhibition at 20 ppm (Fusarium culmorum): 90 to 100% | inhibition at 20 ppm (Pyricularia Oryzae): 90 to 100% | inhibition at 20 ppm [3]: 90 to 100% | inhibition at 20 ppm (Septoria tritici): 90 to 100% | pest or weed control at 500 ppm (Alternaria brassicae): 90 to 100%

Cc1cccc(Oc2nnc(Cl)cc2C2=NOCC(Cc3ccc(Cl)cc3Cl)N2)c1F (racemic) [Compound I-005, (5RS)-3-[6-chloro-3-(2-fluoro-3-methylphenoxy)pyridazin-4-yl]-5-(2,4-dichlorobenzyl)-5,6-dihydro-4H-1,2,4-oxadiazine]
chromatographic logP [1]: 4.47 | pest or weed control at 500 ppm (Botrytis cinerea): 90 to 100% | pest or weed control at 500 ppm (Pyrenophora teres): 90 to 100% | pest or weed control at 500 ppm (Sphaerotheca fuliginea): 90 to 100% | pest or weed control at 500 ppm [2]: 90 to 100% | inhibition at 20 ppm (Alternaria alternata): 90 to 100% | inhibition at 20 ppm (Fusarium culmorum): 90 to 100% | inhibition at 20 ppm (Pyricularia Oryzae): 90 to 100% | inhibition at 20 ppm [3]: 90 to 100% | inhibition at 20 ppm (Septoria tritici): 90 to 100% | pest or weed control at 500 ppm (Alternaria brassicae): 90 to 100%

Cc1ccc(CC2CON=C(c3cc(C)nnc3Oc3cccc(Cl)c3F)N2)c(Br)c1 (racemic) [Compound I-006, (5RS)-5-(2-bromo-4-methylbenzyl)-3-[3-(3-chloro-2-fluorophenoxy)-6-methylpyridazin-4-yl]-5,6-dihydro-4H-1,2,4-oxadiazine]
chromatographic logP [1]: 4.01 | pest or weed control at 500 ppm (Botrytis cinerea): 90 to 100% | pest or weed control at 500 ppm (Pyrenophora teres): 90 to 100% | pest or weed control at 500 ppm (Sphaerotheca fuliginea): 90 to 100% | pest or weed control at 500 ppm [2]: 90 to 100% | inhibition at 20 ppm (Alternaria alternata): 90 to 100% | inhibition at 20 ppm (Fusarium culmorum): 90 to 100% | inhibition at 20 ppm (Pyricularia Oryzae): 90 to 100% | inhibition at 20 ppm [3]: 90 to 100% | inhibition at 20 ppm (Septoria tritici): 90 to 100% | pest or weed control at 500 ppm (Alternaria brassicae): 90 to 100%

Cc1cc(C)cc(CC2CON=C(c3cc(C)nnc3Oc3cccc(Cl)c3)N2)c1 (racemic) [Compound I-009, (5RS)-3-[3-(3-chlorophenoxy)-6-methylpyridazin-4-yl]-5-(3,5-dimethylbenzyl)-5,6-dihydro-4H-1,2,4-oxadiazine]
chromatographic logP [1]: 3.87 | inhibition at 20 ppm (Alternaria alternata): 90 to 100% | inhibition at 20 ppm (Fusarium culmorum): 90 to 100% | inhibition at 20 ppm (Pyricularia Oryzae): 90 to 100% | inhibition at 20 ppm [3]: 90 to 100% | inhibition at 20 ppm (Septoria tritici): 90 to 100%

CC(O)c1cc(C2=NOCC(Cc3ccc(Cl)cc3Cl)N2)c(Oc2cccc(C3CC3)c2F)nn1 (stereo not shown) [Compound I-023, 1-{6-(3-cyclopropyl-2-fluorophenoxy)-5-[5-(2,4-dichlorobenzyl)-5,6-dihydro-4H-1,2,4-oxadiazin-3-yl]pyridazin-3-yl}ethanol]
chromatographic logP [1]: 3.87 | pest or weed control at 500 ppm (Botrytis cinerea): 90 to 100% | pest or weed control at 500 ppm (Pyrenophora teres): 90 to 100% | pest or weed control at 500 ppm (Sphaerotheca fuliginea): 90 to 100% | pest or weed control at 500 ppm [2]: 90 to 100% | inhibition at 20 ppm (Alternaria alternata): 90 to 100% | inhibition at 20 ppm (Fusarium culmorum): 90 to 100% | inhibition at 20 ppm (Pyricularia Oryzae): 90 to 100% | inhibition at 20 ppm [3]: 90 to 100% | pest or weed control at 500 ppm (Alternaria brassicae): 90 to 100%
